Legend:
[1] = target: T1, human α1G T-type channels (Homo sapiens, UniProt O43497); assay: T-type calcium channel block, whole cell patch clamp in HEK cells (α1G); format: cell-based; conditions: HEK cells, patch clamp, mainly non-inactivated protocol; values above 10 μM shown as 10 μM, below 0.30 μM shown as 0.30 μM; read-out: T-type Calcium Channel Block α1G IC50
T1 construct: expressed in transfected cells; host or cells: HEK 293

[2] = target: T2, human α1H T-type channels (Homo sapiens, UniProt O95180); assay: T-type calcium channel block, whole cell patch clamp in HEK cells (α1H); format: cell-based; conditions: HEK cells, patch clamp, mainly non-inactivated protocol; values above 10 μM shown as 10 μM; read-out: T-type Calcium Channel Block α1H IC50
T2 construct: expressed in transfected cells; host or cells: HEK 293
T2 sequence (O95180 whole entry): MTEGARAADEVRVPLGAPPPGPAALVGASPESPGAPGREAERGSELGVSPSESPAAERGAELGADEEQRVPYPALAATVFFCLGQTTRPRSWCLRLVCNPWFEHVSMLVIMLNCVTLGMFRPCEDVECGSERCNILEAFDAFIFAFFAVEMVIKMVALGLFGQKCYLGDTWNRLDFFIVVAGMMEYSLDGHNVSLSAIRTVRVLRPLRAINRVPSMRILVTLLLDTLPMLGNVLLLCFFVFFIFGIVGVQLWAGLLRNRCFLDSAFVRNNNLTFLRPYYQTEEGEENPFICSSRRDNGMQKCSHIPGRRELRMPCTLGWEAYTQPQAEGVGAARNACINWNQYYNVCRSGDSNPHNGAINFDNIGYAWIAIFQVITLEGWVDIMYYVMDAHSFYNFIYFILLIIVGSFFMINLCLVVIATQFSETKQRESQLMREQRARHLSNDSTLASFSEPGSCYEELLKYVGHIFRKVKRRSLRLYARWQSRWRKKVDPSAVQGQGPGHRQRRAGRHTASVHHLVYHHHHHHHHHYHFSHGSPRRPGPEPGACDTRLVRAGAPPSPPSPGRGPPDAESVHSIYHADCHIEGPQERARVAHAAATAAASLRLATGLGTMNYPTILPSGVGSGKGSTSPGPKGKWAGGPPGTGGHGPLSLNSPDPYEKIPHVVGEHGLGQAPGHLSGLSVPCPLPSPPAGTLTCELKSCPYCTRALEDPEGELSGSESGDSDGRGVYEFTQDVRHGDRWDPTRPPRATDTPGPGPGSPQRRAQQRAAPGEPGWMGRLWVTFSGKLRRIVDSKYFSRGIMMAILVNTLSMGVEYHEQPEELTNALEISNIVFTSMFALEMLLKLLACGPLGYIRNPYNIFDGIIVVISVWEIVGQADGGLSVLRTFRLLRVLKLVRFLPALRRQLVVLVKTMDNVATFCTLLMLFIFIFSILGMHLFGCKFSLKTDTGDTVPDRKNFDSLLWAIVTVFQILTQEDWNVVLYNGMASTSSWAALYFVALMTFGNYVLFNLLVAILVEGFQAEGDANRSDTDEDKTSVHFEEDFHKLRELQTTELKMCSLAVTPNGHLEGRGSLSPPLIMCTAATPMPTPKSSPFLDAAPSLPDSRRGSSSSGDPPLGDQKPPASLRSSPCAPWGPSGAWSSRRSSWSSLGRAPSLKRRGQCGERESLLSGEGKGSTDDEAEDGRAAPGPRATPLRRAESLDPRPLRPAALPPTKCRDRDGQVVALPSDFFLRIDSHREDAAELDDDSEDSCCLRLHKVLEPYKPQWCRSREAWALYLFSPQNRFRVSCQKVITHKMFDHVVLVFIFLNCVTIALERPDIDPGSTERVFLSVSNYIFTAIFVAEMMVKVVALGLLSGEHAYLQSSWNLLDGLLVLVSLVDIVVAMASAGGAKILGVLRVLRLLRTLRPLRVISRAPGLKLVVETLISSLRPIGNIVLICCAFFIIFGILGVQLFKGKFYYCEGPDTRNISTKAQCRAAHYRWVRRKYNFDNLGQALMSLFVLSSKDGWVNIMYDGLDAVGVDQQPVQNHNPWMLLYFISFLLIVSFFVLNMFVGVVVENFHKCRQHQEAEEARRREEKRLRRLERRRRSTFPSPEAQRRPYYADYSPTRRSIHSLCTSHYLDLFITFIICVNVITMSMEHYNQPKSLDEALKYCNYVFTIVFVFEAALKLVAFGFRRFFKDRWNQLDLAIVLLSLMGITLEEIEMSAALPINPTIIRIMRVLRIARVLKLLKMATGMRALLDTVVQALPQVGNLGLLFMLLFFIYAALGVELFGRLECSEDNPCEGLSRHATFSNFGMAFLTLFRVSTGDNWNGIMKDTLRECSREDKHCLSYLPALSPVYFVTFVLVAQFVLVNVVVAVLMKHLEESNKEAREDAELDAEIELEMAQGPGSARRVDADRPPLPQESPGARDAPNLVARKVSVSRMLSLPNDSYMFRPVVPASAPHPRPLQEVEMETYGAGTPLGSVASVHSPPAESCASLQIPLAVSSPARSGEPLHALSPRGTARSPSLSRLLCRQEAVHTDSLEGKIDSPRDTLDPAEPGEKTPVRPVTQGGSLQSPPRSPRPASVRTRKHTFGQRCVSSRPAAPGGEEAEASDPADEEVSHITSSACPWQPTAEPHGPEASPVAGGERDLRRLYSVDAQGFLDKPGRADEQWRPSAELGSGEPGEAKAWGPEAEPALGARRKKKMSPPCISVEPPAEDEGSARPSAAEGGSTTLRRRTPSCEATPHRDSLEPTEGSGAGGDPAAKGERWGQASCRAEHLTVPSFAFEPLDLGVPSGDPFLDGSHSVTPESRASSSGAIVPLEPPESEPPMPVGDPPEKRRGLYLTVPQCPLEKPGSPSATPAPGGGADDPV

T1 sequence (O43497 whole entry): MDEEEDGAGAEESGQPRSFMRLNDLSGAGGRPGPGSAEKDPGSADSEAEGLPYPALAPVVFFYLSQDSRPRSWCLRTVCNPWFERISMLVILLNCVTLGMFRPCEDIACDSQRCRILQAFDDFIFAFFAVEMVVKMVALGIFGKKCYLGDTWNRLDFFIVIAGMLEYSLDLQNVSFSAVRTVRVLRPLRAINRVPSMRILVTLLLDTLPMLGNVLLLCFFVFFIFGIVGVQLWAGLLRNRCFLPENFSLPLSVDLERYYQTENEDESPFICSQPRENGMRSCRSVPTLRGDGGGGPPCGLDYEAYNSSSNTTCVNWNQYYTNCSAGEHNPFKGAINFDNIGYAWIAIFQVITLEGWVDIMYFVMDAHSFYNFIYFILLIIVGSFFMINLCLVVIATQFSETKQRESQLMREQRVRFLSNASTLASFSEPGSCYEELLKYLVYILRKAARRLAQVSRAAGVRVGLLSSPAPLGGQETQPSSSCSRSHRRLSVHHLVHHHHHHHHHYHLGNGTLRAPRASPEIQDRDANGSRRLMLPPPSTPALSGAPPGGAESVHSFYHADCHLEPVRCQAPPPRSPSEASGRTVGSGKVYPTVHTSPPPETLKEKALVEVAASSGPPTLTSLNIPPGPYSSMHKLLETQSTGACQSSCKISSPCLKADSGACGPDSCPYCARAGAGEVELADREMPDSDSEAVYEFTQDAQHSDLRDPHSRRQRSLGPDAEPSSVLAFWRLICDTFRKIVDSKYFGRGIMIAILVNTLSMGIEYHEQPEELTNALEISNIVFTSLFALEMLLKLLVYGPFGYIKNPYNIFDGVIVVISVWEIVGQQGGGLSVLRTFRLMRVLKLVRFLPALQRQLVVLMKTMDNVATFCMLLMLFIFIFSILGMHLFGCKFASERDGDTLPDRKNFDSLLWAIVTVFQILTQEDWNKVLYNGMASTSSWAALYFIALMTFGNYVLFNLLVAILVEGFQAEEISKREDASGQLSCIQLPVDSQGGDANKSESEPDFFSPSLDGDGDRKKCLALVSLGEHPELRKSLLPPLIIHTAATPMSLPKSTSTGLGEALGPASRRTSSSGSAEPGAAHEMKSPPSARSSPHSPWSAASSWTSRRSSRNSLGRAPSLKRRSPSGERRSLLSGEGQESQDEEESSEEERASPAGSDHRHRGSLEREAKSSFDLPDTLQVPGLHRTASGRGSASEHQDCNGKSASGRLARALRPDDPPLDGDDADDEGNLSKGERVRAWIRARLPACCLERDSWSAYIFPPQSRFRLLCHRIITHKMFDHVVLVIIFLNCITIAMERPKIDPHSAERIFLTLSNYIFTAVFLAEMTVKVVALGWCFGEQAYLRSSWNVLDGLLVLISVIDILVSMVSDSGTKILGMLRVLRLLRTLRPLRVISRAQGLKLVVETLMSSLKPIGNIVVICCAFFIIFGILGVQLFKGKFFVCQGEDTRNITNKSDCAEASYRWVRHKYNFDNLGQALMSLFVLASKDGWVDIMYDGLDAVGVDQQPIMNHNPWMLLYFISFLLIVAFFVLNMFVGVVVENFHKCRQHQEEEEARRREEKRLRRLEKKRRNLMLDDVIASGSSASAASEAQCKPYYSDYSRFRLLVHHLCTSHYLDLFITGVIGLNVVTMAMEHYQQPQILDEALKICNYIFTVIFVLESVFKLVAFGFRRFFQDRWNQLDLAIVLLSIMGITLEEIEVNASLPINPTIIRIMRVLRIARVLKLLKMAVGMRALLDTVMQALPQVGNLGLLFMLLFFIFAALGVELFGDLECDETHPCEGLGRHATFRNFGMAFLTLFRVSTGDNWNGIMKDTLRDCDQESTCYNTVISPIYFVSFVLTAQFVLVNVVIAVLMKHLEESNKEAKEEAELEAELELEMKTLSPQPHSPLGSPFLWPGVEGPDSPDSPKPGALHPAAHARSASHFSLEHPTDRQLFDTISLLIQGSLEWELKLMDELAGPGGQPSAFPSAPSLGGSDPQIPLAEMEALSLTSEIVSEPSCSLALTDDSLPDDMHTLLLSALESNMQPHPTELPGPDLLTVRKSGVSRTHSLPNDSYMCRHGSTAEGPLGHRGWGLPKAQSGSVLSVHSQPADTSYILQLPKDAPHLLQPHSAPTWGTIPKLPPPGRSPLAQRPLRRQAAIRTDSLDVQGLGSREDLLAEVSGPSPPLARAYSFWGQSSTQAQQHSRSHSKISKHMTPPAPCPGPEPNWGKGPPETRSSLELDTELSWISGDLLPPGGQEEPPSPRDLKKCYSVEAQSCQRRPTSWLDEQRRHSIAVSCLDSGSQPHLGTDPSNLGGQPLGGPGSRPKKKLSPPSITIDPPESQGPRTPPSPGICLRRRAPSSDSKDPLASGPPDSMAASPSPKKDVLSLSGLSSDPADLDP

Compound: CC(C)(C)C(C)(O)C(=O)N1CCC(CNC(=O)c2cc(C(F)(F)F)cc(C(F)(F)F)c2)CC1 (centres unmarked) [Compound 89, N-((1-(2-hydroxy-2,3,3-trimethylbutanoyl)piperidin-4-yl)methyl)-3,5-bis(trifluoromethyl)benzamide]
- IC50 [1]: 4100 nM
- IC50 [2]: > 10000 nM

Compound: CC(C)(C)C(O)CN1CCC(CC(=O)Nc2cc(F)cc(C(F)(F)F)c2)CC1 (centres unmarked) [Compound 169, N-(3-fluoro-5-(trifluoromethyl)phenyl)-2-(1-(2-hydroxy-3,3-dimethylbutyl)piperidin-4-yl)acetamide]
- IC50 [1]: < 300 nM
- IC50 [2]: 230 nM

Compound: Cc1ccc(-c2csc(NC(=O)CC3CCN(CC(O)C(C)(C)C)CC3)n2)cc1 (centres unmarked) [Compound 172, 2-(1-(2-hydroxy-3,3-dimethylbutyl)piperidin-4-yl)-N-(4-p-tolylthiazol-2-yl)acetamide]
- IC50 [1]: 1620 nM
- IC50 [2]: > 10000 nM

Compound: CC(C)(C)C(O)CN1CCC(CC(=O)NCc2ccc(Oc3ccccc3)cc2)CC1 (centres unmarked) [Compound 174, 2-(1-(2-hydroxy-3,3-dimethylbutyl)piperidin-4-yl)-N-(4-phenoxybenzyl) acetamide]
- IC50 [1]: 2480 nM
- IC50 [2]: > 10000 nM

Compound: O=C(CC1CCN(C(=O)[C@@H]2CCCCN2)CC1)Nc1cc(C(F)(F)F)cc(C(F)(F)F)c1 [Compound 195, (S)-N-(3,5-bis(trifluoromethyl)phenyl)-2-(1-(piperidine-2-carbonyl)piperidin-4-yl)acetamide]
- IC50 [1]: 4780 nM
- IC50 [2]: 1970 nM

Compound: CC(C)(C)OC(=O)NC(CN1CCC(CC(=O)NCCc2c[nH]c3ccc(F)cc23)CC1)C(C)(C)C (centres unmarked) [Compound 196, tert-butyl 1-(4-(2-(2-(5-fluoro-1H-indol-3-yl)ethylamino)-2-oxoethyl)piperidin-1-yl)-3,3-dimethylbutan-2-ylcarbamate]
- IC50 [1]: > 10000 nM
- IC50 [2]: > 10000 nM

Compound: CC(C)(C)OC(=O)NC(CN1CCC(CC(=O)NCc2cc(Cl)cc(Cl)c2)CC1)C(C)(C)C (centres unmarked) [Compound 198, tert-butyl 1-(4-(2-(3,5-dichloro-benzylamino)-2-oxoethyl)piperidin-1-yl)-3,3-dimethylbutan-2-ylcarbamate]
- IC50 [1]: 400 nM
- IC50 [2]: 1300 nM

Compound: CC(C)(C)C(CN1CCC(CC(=O)NC(c2cccc(F)c2)c2cccc(F)c2)CC1)NS(=O)(=O)C1CC1 (centres unmarked) [Compound 221, N-(bis(3-fluorophenyl)methyl)-2-(1-(2-(cyclopropanesulfonamido)-3,3-dimethylbutyl)piperidin-4-yl)acetamide]
- IC50 [1]: 4080 nM
- IC50 [2]: > 10000 nM

Compound: CC(C)S(=O)(=O)NC(CN1CCC(CC(=O)NC(c2cccc(F)c2)c2cccc(F)c2)CC1)C(C)(C)C (centres unmarked) [Compound 222, N-(bis(3-fluorophenyl)methyl)-2-(1-(3,3-dimethyl-2-(1-methylethylsulfonamido)butyl)piperidin-4-yl)acetamide]
- IC50 [1]: 2030 nM
- IC50 [2]: > 10000 nM

Compound: CCOC(=O)NC(CN1CCC(CC(=O)NCc2cc(Cl)cc(Cl)c2)CC1)C(C)(C)C (centres unmarked) [Compound 224, ethyl 1-(4-(2-(3,5-dichlorobenzyl-amino)-2-oxoethyl)piperidin-1-yl)-3,3-dimethylbutan-2-ylcarbamate]
- IC50 [1]: 3760 nM
- IC50 [2]: 6190 nM

Compound: CC(C)COC(=O)NC(CN1CCC(CC(=O)NCc2cc(Cl)cc(Cl)c2)CC1)C(C)(C)C (centres unmarked) [Compound 225, isobutyl 1-(4-(2-(3,5-dichlorobenzyl-amino)-2-oxoethyl)piperidin-1-yl)-3,3-dimethylbutan-2-ylcarbamate]
- IC50 [1]: 520 nM
- IC50 [2]: 770 nM

Compound: O=C(NCC1CCN(C(=O)CN2CCC(F)(F)C2)CC1)c1cc(C(F)(F)F)cc(C(F)(F)F)c1 [Compound 226, N-((1-(2-(3,3-difluoropyrrolidin-1-yl)acetyl)piperidin-4-yl)methyl)-3,5-bis(trifluoromethyl)benzamide]
- IC50 [1]: > 10000 nM
- IC50 [2]: > 10000 nM

Compound: O=C(NCC1CCN(CCNS(=O)(=O)C2CC2)CC1)c1cccc(C(F)(F)F)c1 [Compound 228, N-((1-(2-(cyclopropanesulfonamido)ethyl)piperidin-4-yl)methyl)-3-(trifluoromethyl)benzamide]
- IC50 [1]: 1670 nM
- IC50 [2]: 2350 nM
